Results reported in patent US20050187184A1, “Antineoplastic combinations” (Wyeth, priority 2001, published 2005).
Where a name gives a salt, the structure may show the parent alone.

Tests used:
[1] = tested on: human glioblastoma cell line; conditions: in vitro; cited from earlier work
[2] = tested on: histologically diverse tumor cells; conditions: cited from earlier work
[3] = tested on: breast cancer lines; conditions: one of two breast cancer lines studied in vivo; cited from earlier work
[4] = tested on: human tumor xenografts of diverse histological types; conditions: nude mice; cited from earlier work
[5] = tested on: human pancreatic tumors; conditions: several human pancreatic tumors in nude mice; cited from earlier work
[6] = tested on: orthotopic glioma; conditions: nude mice; cited from earlier work
[7] = tested on: human colon line GC3; assay: human colon (GC3) mouse xenograft test procedure; type: in vivo; conditions: gemcitabine on days 1, 4 and 8 in the first cycle
Protocol: Female CBA/CaJ mice (Jackson Laboratories, Bar Harbor, Me.), 4 weeks of age, were immune-deprived by thymectomy, followed 3 weeks later by whole-body irradiation (1200 cGy) using a ^137Cs source. Mice received 3×10^6 nucleated bone marrow cells within 6-8 h of irradiation. Tumor pieces of approximately 3 mm^3 were implanted in the space of the dorsal lateral flanks of the mice to initiate tumor growth. Tumor-bearing mice were randomized into groups of seven prior to initiating therapy. Mice bearing tumors each received drug when tumors were approximately 0.20-1 cm in diameter. Tumor size was determined at 7-day intervals using digital Vernier calipers interfaced with a computer. Tumor volumes were calculated assuming tumors to be spherical using the formula [(□/6)×d^3], where d is the mean diameter. CCI-779 was given on a schedule of 5 consecutive days for 2 weeks with this cycle repeated every 21 days for 3 cycles. […] The schedule of the other chemotherapy drug for each study was as follows: • Gemcitabine on days 1, 4, 8 in cycle 1 only The combination of CCI-779 and gemcitabine was evaluated in a human colon (GC3) mouse xenograft test procedure. In this test procedure, CCI-779 was given daily ×5 for 2 consecutive weeks every 21 days for 3 cycles and gemcitabine given on days 1, 4, and 8 in the first cycle only.

Question: For `CO[C@H]1C[C@@H]2CC[C@@H](C)[C@@](O)(O2)C(=O)C(=O)N2CCCC[C@H]2C(=O)O[C@H]([C@H](C)C[C@@H]2CC[C@@H](OC(=O)C(C)(CO)CO)[C@H](OC)C2)CC(=O)[C@H](C)/C=C(\C)[C@@H](O)[C@@H](OC)C(=O)[C@H](C)C[C@H](C)/C=C/C=C/C=C/1C` [CCI-779, Rapamycin 42-ester with 3-hydroxy-2-(hydroxymethyl)-2-methylpropionic acid], which “growth factor (platelet-derived)-induced stimulation” value [1] is on record?
Answer: markedly suppressed

Question: What about the “growth of tumor cells in vitro” value ([2]; CNS cancer, leukemia (T-cell), breast cancer, prostate cancer and melanoma lines among the most sensitive) of the same molecule?
Answer: inhibit the growth

Question: And the cell cycle effect ([2]; in vitro)?
Answer: arrested cells in the G1 phase

Question: And the tumor growth [3]?
Answer: inhibited

Question: And the “activity against human tumor xenografts” value [4]?
Answer: has activity

Question: What about the sensitivity of gliomas [4] of the same molecule?
Answer: particularly sensitive

Question: And the tumor growth [5]?
Answer: inhibited

Question: What about the “activity in orthotopic glioma model” value [6] of the same molecule?
Answer: active

Question: For `Nc1ccn([C@@H]2O[C@H](CO)[C@@H](O)C2(F)F)c(=O)n1` [gemcitabine, 2′-deoxy-2′,2′-difluorocytidine monohydrochloride ((beta)-isomer)], which “tumor response in the first cycle” value [7] is on record?
Answer: tumor regression
